Assay results from patent US6509365B1, “2-phenylbenzimidazoles and 2-phenylindoles, and production and use thereof” (BASF Aktiengesellschaft, priority 1998, dated 2003).

Assays:
circulatory shock = details: S. Cuzzocrea et al., Br. J. Pharmacol. 1997; cited from earlier work
[1] = biological target: T1, PARP enzyme present in the cells (human cell line C4I) (Homo sapiens, UniProt P09874); assay: Test of PARP inhibitors in a cellular assay (H2O2-induced PAR formation, immunofluorescence); format: cell-based; details: 1 mM hydrogen peroxide, FITC signal standardized to DAPI
T1 construct: endogenous in cells; host or cells: human cell line C4I
Procedure: To test the action of PARP inhibitors, eukaryotic cell lines are treated with chemicals such that the DNA of the cell line is damaged and as a result the PARP enzyme present in the cells is activated. Due to the activation of the enzyme, chains of poly-ADP-ribose (PAR) are formed on proteins. These chains are bound by a specific antibody. This is in turn bound by a second antibody which is provided with a fluorescent label. The fluorescence is measured using a fluorescence scanner and behaves proportionately to the activity of the enzyme PARP. PARP inhibitors can be recognized by a weakening of the fluorescence signal. In order to prevent adulterations of the results by different cell counts, the DNA of the cells is labeled with a further dye and its fluorescence is likewise determined in the fluorescence scanner.
400,000 cells of the human cell line C4I are incubated at 37° C., 5% CO2 with 10% fetal bovine serum in RPMI medium in cell culture plates having 24 cavities until a thick cell lawn is obtained. The cells are washed with DMEM and the PARP inhibitors to be tested are added in various concentrations in DMEM. After incubation for 20 min at 37° C., a concentration of 1 mM is established using hydrogen peroxide and the mixture is incubated at 37° C. for a further 10 min. For the control, cells in some cavities are not treated with hydrogen peroxide (no PARP activation) or receive no inhibitor (maximal PARP activation). The cells are washed once with PBS and fixed at −20° C. for 10 min by addition of methanol/acetone mixture which is precooled to −20° C. (7 parts methanol, 3 parts acetone). The cells are then dried, rehydrated at room temperature for 10 min by addition of PBS, and nonspecific binding sites are blocked for 30 min at room temperature in PBS with 0.05% Tween 20 and 5% dried milk powder. […] The FITC and DAPI fluorescence is measured at several sites in the cavities with the aid of a fluorescence scanner. […] The IC50 values are calculated by semilogarithmic plotting of the standardized values of the various inhibitor concentrations.

[2] = Determination of the water solubility; format: physicochemical; details: pH 5 to 6 adjusted with sodium acetate solution, DMSO ≦1% if not a water-soluble salt
Procedure: A compound to be measured is dissolved directly in a specified volume of water and the resulting solution is adjusted to pH 5 to 6 using a sodium acetate solution so that the concentration of the active compound to be tested is achieved. If the measured substance is not present as a water-soluble salt, this was dissolved in as little dimethyl sulfoxide as possible and then diluted with water (final concentration of dimethyl sulfoxide ≦1%), after which the pH was additionally adjusted here too.

T1 sequence (P09874 whole entry): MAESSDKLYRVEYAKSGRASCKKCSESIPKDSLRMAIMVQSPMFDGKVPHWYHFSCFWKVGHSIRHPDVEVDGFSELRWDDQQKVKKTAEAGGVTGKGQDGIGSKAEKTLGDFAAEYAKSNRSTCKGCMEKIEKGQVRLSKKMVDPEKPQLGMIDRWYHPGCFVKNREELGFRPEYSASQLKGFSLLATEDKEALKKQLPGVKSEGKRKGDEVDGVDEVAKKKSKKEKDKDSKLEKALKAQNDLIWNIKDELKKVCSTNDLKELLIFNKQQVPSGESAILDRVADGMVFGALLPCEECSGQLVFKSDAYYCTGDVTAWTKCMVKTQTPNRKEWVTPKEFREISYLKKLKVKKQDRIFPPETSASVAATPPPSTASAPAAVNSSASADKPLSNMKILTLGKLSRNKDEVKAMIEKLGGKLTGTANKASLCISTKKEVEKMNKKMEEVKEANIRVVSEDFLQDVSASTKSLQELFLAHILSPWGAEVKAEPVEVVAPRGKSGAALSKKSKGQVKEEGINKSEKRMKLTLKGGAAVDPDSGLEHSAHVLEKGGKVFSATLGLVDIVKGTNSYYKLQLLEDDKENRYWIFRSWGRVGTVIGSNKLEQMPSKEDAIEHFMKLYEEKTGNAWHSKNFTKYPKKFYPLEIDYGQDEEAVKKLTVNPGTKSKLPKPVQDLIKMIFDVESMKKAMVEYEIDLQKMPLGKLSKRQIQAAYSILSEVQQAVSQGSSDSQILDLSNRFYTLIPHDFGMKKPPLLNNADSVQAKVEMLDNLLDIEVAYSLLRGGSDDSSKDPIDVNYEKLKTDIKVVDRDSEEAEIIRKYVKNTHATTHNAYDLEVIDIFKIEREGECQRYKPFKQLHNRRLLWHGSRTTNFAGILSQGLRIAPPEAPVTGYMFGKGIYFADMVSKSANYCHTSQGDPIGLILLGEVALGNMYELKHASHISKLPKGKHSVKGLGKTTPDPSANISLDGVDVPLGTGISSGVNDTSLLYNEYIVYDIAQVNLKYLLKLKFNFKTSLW

Row | SMILES | IC50 [1] | further results
1 | NC(=O)c1cccc(N)c1 [3-aminobenzamide] |  | protective effects in a model for circulatory shock (circulatory shock): protective effects
2 | CCN(CC)CCN(C)c1ccc(-c2nc3c(C(N)=O)cccc3[nH]2)cc1 [Example 1] | 115 nM | 
3 | CN(C)CCN(C)c1ccc(-c2nc3c(C(N)=O)cccc3[nH]2)cc1 [Example 2] | 119 nM | 
4 | CN(C)CCc1cc(-c2nc3c(C(N)=O)cccc3[nH]2)ccc1[N+](=O)[O-] [Example 3] | 118 nM | 
5 | COc1ccc(-c2nc3cccc(C(N)=O)c3[nH]2)cc1 [NU 1076] |  | solubility [2]: < 0.01%
